Laboratory results reported in US20120121546A1, “Method of Producing Progenitor Cells from Differentiated Cells” (priority 2009, published 2012).

Test system: human dermal fibroblasts
Assay: Adipogenesis (Oil Red O) of fibroblasts detached with trypsin and seeded at high density
Format: cell-based
Description: After incubation for about 12-21 days in adipogenic medium, the medium is removed, and cells are fixed in 10% formaldehyde solution in aqueous phosphate buffer for at least 1 hour. Cells are then washed with 60% isopropanol and stained with a working solution of Oil Red 0 solution (in 60% isopropanol, see below for preparation) for 10 minutes. The cells are then washed several times with water, and destained in 100% isopropanol for 15 minutes. The destain solution is removed and the optical density of the solution is measured at 500-510 nm.
In a this set of experiments for producing cells having the ability to differentiate into different cell types, fibroblasts are either incubated in media without trypsin or containing trypsin and then cultured at different lengths of time under high density conditions of about 100,000 cells per well/plate or at about 3703.7 cells per mm^2 surface area of the well/plate before adherence of the cells in a high density plating medium. The cells produced by this method are then tested for their ability to differentiate into adipocytes, as determined by the accumulation of fat.
Fresh human dermal fibroblasts derived from adult skin or from foreskin are purchased from PromoCell® (Banksia Scientific Company, QLD). […]
Test cells are recovered from culture and seeded at concentrations of about 100,000 cells per well/plate or at about 3703.7 cells per mm^2 surface area of the well/plate before attachment of the cells to the plate/well directly in 200 to 400 μl high density plating medium (e.g., Medium 199 containing 170 nM insulin, 0.5 mM 3-isobutyl-1-methylxanthine, 0.2 mM indomethacin, 1 μM dexamethasone, and 15% rabbit serum) for a time and under conditions sufficient for an optimum number of progenitor cells to be produced e.g., for up to about 24 hours or until adherence is achieved, i.e., a shorter time than required for cells to become adherent and/or as determined by analysis of cell marker expression and/or by the ability of aliquots of cells to subsequently undergo differentiation. […]

For trypsin, the “ability to differentiate into adipocytes” value (detached with 0.12% trypsin, seeded at about 100,000 cells per well in high density plating medium before adherence, then adipogenic medium, cells without trypsin gave no detectable adipocytes) was “capable of differentiating into adipocytes”, the “optimum time in adipogenic medium for assuming ability to differentiate into adipocytes” value (numbers of fat-producing cells assayed from day 10 to day 21 in adipogenic medium) was 10 to 14 days and the “time from incubation with trypsin to high density seeding at which adipocytes are apparent” value (seeding directly into high density plating medium) was no more than 6 h.
